“And” between values parts separate entries of the source, which are not always exact repeats. Equal entries are not always repeated.
Legend:
[1] = test system: human liver microsomes (HLMs); test: Time course of oxidation of tenatoprazole and tenatoprazole sulfide by human liver microsomes (HPLC); format: in vitro ADME; settings: for tenatoprazole remained: substrate tenatoprazole 500 μM
Experimental: A racemate of tenatoprazole was used in this work because the chiral tenatoprazoles currently are not commercially available. The reactions using HLMs contained incubation at 37 °C in 0.25 mL mixtures containing P450 (0.5 mg protein/mL) in 100 mM potassium phosphate buffer (pH 7.4), an NADPH-generating system (NGS, final concentration of 10 mM glucose-6-phosphate, 0.50 mM NADP^+, 1.0 IU yeast glucose-6-phosphate dehydrogenase per mL), and 0.1 mM of tenatoprazole or tenatoprazole sulfide. Incubations generally were performed for 2 h in the presence or absence of the NGS. Tenatoprazole and its metabolites were extracted twice using cold ethyl acetate as an organic solvent. Then centrifugation (1000× g, 20 min) was done to separate the organic layer from the aqueous layer. Omeprazole was added to this solution as an internal standard (IS) at a final 20 μM concentration. The organic layer was concentrated under nitrogen gas stream. The dried residues were then dissolved in the mobile phase (180 μL) and 30 μL was injected onto the column.
High-performance liquid chromatography (HPLC) was performed on the basis of a previously developed method for tenatoprazole and its metabolites, as described elsewhere. The analytical column was a Gemini C18 column (4.6 × 150 mm, 5 μm; Phenomenex), and the HPLC mobile phase consisted of acetonitrile and 5 mM potassium phosphate buffer (pH 7.3) (25:75, v/v). The substrate and its metabolites were detected at A302. The HPLC profile of the authentic compounds (i.e., tenatoprazole and its metabolites) were measured to compare to identify the major metabolites of tenatoprazole and tenatoprazole sulfide produced by HLMs.
The time course of the oxidation of tenatoprazole and tenatoprazole sulfide by HLMs (0.5 mg protein/mL) was analyzed to the estimated yield of metabolites and percentage of each metabolite using 0.60 mM substrate in 0.25 mL of 0.10 M potassium phosphate buffer (pH 7.4). After NGS was added to initiate the reaction, the samples were incubated for the designated time (i.e., 2, 5, 10, and 30 min, and 1, 2, 4, 8, 12, and 24 h) at 37 °C. Product formation was quantified using HPLC analysis, as mentioned above.
Calibration standard curves of tenatoprazole were made using a blank control sample (a reaction mixture without substrate and IS) and 12 samples containing tenatoprazole and omeprazole (IS) covering the concentration ranges of 1–500 μM, as described previously. The peak area ratio of tenatoprazole to IS was linear with respect to the analyte concentration over the range of 1–500 μM. The metabolites were quantified by comparing the peak areas of each metabolite to the mean peak areas of the IS (20 μM omeprazole).

[2] = target: T1, human CYP2C19 (Homo sapiens, UniProt P33261); test: Steady-state kinetics of tenatoprazole oxidation by recombinant CYP2C19; format: in vitro ADME
T1 construct: made in house; host or cells: Escherichia coli (membrane fractions)
Experimental: Pooled liver microsomes from human samples were obtained from ThermoFisher Scientific (Waltham, MA, USA). […] Membrane fractions expressing both P450 and CPR of E. coli were prepared as described previously and were used for the catalytic activity assays. […] The reaction was started by adding NGS and the incubation was continued for the indicated time at 37 °C. Incubation was then stopped by adding ice-chilled ethyl acetate (0.50 mL) and omeprazole (IS) was added to a final concentration of 20 μM. […] Phenomenex, Torrance, CA, USA). The products formed were analyzed by HPLC at […]. […] The kinetic parameters (kcat and Km) were determined by using a Michaelis-Menten nonlinear regression analysis with GraphPad Prism (GraphPad Software, San Diego, CA, USA).

[3] = design: method as in PMID 23205582; settings: compared with other PPIs such as lansoprazole and omeprazole; cited from earlier work
[4] = design: method as in PMID 27640009; settings: neutral pH; cited from earlier work
[5] = target: T2, CYP1A2 (Homo sapiens, UniProt P05177); test: Tenatoprazole oxidation by recombinant CYP1A2; format: in vitro ADME; settings: substrate tenatoprazole 0.10 mM, 0.20 μM CYP1A2; no apparent formation
T2 construct: made in house; host or cells: Escherichia coli (membrane fractions)
T2 sequence (P05177 1-516): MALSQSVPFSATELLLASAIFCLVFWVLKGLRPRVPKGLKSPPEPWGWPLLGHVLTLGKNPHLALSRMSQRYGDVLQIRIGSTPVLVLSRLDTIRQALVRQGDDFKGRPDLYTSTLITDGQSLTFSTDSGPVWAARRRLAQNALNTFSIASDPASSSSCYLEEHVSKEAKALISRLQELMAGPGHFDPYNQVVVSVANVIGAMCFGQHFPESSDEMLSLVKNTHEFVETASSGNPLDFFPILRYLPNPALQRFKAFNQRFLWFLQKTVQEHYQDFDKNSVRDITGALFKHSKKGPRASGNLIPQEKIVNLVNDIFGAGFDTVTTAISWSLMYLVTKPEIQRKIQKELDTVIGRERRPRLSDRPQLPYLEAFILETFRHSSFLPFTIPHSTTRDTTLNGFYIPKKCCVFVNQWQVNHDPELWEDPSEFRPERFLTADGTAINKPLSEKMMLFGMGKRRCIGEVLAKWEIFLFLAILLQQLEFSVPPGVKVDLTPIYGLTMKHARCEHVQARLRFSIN
Experimental: (§1) Pooled liver microsomes from human samples were obtained from ThermoFisher Scientific (Waltham, MA, USA). Recombinant human P450s were heterologously expressed in Escherichia coli with a pCW vector containing human P450 cDNA (CYP 3A4, 2C9, 2C19, 1A2, 1B1, 2E1, 2D6, and 2A6) and rat NADPH-P450 reductase (CPR). Membrane fractions expressing both P450 and CPR of E. coli were prepared as described previously and were used for the catalytic activity assays.
(§2) The reaction mixture included 0.20 μM P450, 0.40 μM CPR, and tenatoprazole (0.10 mM) in 0.25 mL of 0.10 M potassium phosphate buffer (pH 7.4). The reaction was started by adding NGS and the incubation was continued for the indicated time at 37 °C. Incubation was then stopped by adding ice-chilled ethyl acetate (0.50 mL) and omeprazole (IS) was added to a final concentration of 20 μM. The mixtures were vortexed for 2 min, centrifuged at 1000× g for 20 min, and then the organic layer was taken for drying under nitrogen gas stream. The residues were dissolved in 180 μL of HPLC mobile phase and 30 μL was injected onto a Gemini C18 column (4.6 × 150 mm, 5 μm; Phenomenex, Torrance, CA, USA). The products formed were analyzed by HPLC at A302. The HPLC profile of the authentic chemicals (i.e., tenatoprazole, tenatoprazole sulfide, and their metabolites) were used to identify the major metabolites of tenatoprazole and tenatoprazole sulfide produced by the recombinant P450s.
(§3) Figure S6. HPLC analyses of the products derived from the oxidation of tenatoprazole catalyzed by recombinant human P450s. The reaction mixture included 0.20 μM P450, 0.40 μM CPR, and 0.10 mM tenatoprazole in 0.25 mL of potassium phosphate buffer (0.10 M, pH 7.4). The reaction was started by adding an NGS at 37 °C for 60 min. (A) CYP1A2; (B) CYP1B1; (C) CYP2A6; (D) CYP2C9; (E) CYP2D6; (F) CYP2E1. The arrows with solid and broken lines indicate the retention times of 5’-OH tenatoprazole (6.6 min) and 5’-OH tenatoprazole sulfide (8.4 min), respectively.
(§4) (1 picture or pasted object on this page, not shown here)

[6] = target: T3, CYP1B1 (Homo sapiens, UniProt Q16678); test: Tenatoprazole oxidation by recombinant CYP1B1; format: in vitro ADME; settings: substrate tenatoprazole 0.10 mM, 0.20 μM CYP1B1; no apparent formation
T3 construct: made in house; host or cells: Escherichia coli (membrane fractions)
T3 sequence (Q16678 1-543): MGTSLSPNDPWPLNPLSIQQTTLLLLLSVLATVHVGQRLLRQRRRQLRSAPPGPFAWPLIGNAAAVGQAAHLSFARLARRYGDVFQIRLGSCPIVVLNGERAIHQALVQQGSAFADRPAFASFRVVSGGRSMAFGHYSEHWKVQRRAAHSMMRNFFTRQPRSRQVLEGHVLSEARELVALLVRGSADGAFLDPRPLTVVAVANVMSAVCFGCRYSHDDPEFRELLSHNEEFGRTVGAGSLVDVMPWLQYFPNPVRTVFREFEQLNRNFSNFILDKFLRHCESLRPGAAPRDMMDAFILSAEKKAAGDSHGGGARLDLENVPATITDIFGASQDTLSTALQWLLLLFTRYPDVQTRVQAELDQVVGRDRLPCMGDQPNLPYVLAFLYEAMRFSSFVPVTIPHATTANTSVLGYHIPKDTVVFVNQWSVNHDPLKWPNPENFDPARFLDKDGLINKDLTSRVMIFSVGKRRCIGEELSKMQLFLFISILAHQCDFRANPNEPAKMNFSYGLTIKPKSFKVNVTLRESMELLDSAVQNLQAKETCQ
Experimental: as §1, §2, §3, §4

[7] = target: T4, CYP2A6 (Homo sapiens, UniProt P11509); test: Tenatoprazole oxidation by recombinant CYP2A6; format: in vitro ADME; settings: substrate tenatoprazole 0.10 mM, 0.20 μM CYP2A6; no apparent formation
T4 construct: made in house; host or cells: Escherichia coli (membrane fractions)
T4 sequence (P11509 1-494): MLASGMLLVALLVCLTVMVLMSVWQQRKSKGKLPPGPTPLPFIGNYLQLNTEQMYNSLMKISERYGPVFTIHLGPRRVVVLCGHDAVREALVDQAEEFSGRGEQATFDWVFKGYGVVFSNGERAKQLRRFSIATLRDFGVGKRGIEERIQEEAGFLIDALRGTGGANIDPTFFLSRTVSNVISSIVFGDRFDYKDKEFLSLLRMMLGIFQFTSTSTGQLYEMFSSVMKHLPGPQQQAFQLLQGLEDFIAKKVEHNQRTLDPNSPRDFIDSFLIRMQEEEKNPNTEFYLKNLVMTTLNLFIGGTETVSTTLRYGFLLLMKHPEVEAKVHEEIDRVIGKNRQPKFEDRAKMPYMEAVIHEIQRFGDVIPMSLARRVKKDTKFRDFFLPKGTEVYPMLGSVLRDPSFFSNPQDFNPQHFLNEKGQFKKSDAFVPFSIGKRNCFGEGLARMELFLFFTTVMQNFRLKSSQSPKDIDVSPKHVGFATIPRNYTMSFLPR
Experimental: as §1, §2, §3, §4

[8] = target: T5, CYP2E1 (Homo sapiens, UniProt P05181); test: Tenatoprazole oxidation by recombinant CYP2E1; format: in vitro ADME; settings: substrate tenatoprazole 0.10 mM, 0.20 μM CYP2E1; no apparent formation
T5 construct: made in house; host or cells: Escherichia coli (membrane fractions)
Experimental: as §1, §2, §3, §4

[9] = target: T6, CYP2C9 (Homo sapiens, UniProt P11712); test: Tenatoprazole oxidation by recombinant CYP2C9; format: in vitro ADME; settings: substrate tenatoprazole 0.10 mM, 0.20 μM CYP2C9
T6 construct: made in house; host or cells: Escherichia coli (membrane fractions)
Experimental: as §1
as §2, with “The HPLC profile of the authentic chemicals (i.e., tenatoprazole, tenatoprazole sulfide, and their metabolites) were used to identify the major metabolites of tenatoprazole and tenatoprazole sulfide produced by the recombinant P450s.” left out

[10] = target: T7, CYP2D6 (Homo sapiens, UniProt P10635); test: Tenatoprazole oxidation by recombinant CYP2D6; format: in vitro ADME; settings: substrate tenatoprazole 0.10 mM, 0.20 μM CYP2D6
T7 construct: made in house; host or cells: Escherichia coli (membrane fractions)
Experimental: as §1
as §2, with “The HPLC profile of the authentic chemicals (i.e., tenatoprazole, tenatoprazole sulfide, and their metabolites) were used to identify the major metabolites of tenatoprazole and tenatoprazole sulfide produced by the recombinant P450s.” left out

[11] = target: T8, human CYP3A4 (Homo sapiens, UniProt P08684); test: Sulfoxidation of tenatoprazole sulfide by recombinant CYP3A4 (chiral chromatography); format: in vitro ADME; settings: substrate tenatoprazole sulfide, recombinant CYP3A4, chiral chromatography; label = product formed
T8 construct: made in house; host or cells: Escherichia coli (membrane fractions)
Experimental: The sulfoxidation reaction of tenatoprazole sulfide by CYP3A4 was measured by chiral chromatography. […] The reaction was initiated by adding NGS at 37 °C. […] After the residues were solubilized in 180 μL mobile phase, 30 μL samples were injected onto a Chiralpak AD column (4.6 × 150 mm, 10 μm; Daicel Corporation, Osaka, Japan) with a hexane-ethanol mixture (30:70, v/v) as the mobile phase. The products formed were analyzed by HPLC at […]. […] The kinetic parameters (kcat and Km) were determined by using a Michaelis-Menten nonlinear regression analysis with GraphPad Prism (GraphPad Software, San Diego, CA, USA).

[12] = target: T1, human CYP2C19; design: method as in earlier work; settings: in vitro; cited from earlier work

T1 sequence (P33261 whole entry): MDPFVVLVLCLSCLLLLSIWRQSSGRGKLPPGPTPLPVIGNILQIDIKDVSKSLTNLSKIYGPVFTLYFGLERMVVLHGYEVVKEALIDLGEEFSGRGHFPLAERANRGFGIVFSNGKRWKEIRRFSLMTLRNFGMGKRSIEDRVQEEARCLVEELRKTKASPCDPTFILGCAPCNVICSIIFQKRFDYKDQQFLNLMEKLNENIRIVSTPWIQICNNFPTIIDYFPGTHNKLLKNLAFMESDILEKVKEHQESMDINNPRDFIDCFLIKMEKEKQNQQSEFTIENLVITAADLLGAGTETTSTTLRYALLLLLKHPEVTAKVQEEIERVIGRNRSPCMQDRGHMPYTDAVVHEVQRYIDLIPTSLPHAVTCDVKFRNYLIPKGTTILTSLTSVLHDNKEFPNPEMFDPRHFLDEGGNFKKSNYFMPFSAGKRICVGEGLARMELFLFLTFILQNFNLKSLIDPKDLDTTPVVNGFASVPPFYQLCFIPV
T8 sequence (P08684 whole entry): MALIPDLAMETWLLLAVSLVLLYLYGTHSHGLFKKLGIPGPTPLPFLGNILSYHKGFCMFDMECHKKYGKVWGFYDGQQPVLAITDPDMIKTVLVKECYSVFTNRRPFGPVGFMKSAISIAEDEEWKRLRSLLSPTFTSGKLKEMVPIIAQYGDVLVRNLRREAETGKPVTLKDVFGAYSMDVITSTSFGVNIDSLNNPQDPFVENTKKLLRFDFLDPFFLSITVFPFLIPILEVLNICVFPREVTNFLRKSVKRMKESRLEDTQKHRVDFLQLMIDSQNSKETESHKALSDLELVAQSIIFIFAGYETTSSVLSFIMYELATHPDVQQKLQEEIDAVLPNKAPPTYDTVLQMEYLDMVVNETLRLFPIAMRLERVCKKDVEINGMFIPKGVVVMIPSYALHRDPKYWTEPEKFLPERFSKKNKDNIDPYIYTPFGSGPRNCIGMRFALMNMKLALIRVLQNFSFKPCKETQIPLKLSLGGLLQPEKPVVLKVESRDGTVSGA
T5 sequence (P05181 whole entry): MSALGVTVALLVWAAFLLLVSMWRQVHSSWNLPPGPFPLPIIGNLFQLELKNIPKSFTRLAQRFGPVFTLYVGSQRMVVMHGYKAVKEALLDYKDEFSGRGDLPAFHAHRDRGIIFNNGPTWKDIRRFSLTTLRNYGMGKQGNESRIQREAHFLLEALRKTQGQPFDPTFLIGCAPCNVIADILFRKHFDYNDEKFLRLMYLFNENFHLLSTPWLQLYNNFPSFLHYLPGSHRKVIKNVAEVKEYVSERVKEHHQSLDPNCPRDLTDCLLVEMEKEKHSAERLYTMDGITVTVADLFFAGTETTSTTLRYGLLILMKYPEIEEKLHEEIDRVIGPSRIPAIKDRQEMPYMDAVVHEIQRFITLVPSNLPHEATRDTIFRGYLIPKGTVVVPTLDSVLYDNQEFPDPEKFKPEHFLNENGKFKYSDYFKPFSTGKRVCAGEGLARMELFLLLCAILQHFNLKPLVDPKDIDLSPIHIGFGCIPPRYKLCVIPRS
T7 sequence (P10635 whole entry): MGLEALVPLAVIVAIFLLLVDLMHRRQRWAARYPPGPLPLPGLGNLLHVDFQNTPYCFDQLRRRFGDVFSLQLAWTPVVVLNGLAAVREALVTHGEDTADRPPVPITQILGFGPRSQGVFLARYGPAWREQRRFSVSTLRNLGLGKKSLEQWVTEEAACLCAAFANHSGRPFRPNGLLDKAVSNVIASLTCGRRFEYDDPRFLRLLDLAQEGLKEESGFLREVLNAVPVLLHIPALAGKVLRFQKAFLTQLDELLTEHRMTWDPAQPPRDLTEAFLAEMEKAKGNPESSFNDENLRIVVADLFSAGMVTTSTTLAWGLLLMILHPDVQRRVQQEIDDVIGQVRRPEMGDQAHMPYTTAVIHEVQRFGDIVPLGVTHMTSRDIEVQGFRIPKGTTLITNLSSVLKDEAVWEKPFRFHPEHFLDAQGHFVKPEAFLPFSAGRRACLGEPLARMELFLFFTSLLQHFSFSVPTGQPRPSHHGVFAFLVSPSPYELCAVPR
T6 sequence (P11712 whole entry): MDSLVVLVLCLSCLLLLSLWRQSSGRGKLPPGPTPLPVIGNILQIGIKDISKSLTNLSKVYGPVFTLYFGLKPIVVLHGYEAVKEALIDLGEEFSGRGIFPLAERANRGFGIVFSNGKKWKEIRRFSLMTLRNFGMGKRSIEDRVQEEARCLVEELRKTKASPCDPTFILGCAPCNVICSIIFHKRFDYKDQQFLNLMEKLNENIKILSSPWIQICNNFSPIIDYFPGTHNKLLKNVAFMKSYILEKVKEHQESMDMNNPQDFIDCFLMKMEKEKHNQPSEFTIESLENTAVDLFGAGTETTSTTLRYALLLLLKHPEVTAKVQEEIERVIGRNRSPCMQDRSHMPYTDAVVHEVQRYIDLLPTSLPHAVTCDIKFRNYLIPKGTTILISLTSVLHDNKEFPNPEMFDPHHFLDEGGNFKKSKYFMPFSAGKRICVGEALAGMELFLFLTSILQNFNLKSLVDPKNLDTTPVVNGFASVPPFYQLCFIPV

**Q.** Which results are given for `COc1ccc2[nH]c([S+]([O-])Cc3ncc(C)c(OC)c3C)nc2n1` (stereo not drawn) [tenatoprazole, Tenatoprazole]?
**A.** tenatoprazole remained ([1]; HLM reaction mixture without NADPH, after 12 h): 4.4%; tenatoprazole remained ([1]; HLMs, presence of NADPH, 12 h of incubation, 37 °C): 1.0%; product formed from tenatoprazole sulfide (% of substrate) ([1]; substrate tenatoprazole sulfide 500 μM, HLMs, presence of NADPH, after 12 h): 0.49%; sulfoxidation of tenatoprazole by CYP2C19 ([2]; recombinant CYP2C19, substrate tenatoprazole): did not catalyze; plasma half-life, times longer than those of other PPI drugs [3]: ~7 times

**Q.** Which “spontaneous or nonenzymatic degradation to omeprazole sulfide” value [4] does the source give for `COc1ccc2[nH]c([S+]([O-])Cc3ncc(C)c(OC)c3C)nc2c1` (stereo not drawn) [omeprazole, Omeprazole] here?
**A.** Its value is “not spontaneously or nonenzymatically degraded”.

**Q.** What does the source list for `COc1ccc2[nH]c(SCc3ncc(CO)c(OC)c3C)nc2n1` [5′-OH tenatoprazole sulfide]?
**A.** kcat of product formation ([2]; substrate tenatoprazole (1–500 μM), recombinant CYP2C19 0.20 μM, 37 °C, 5 min, label = product formed): 2.0 min⁻¹ and 2.0 ± 0.1 min⁻¹; formation rate of metabolite [5]: < 0.05 nmol product/min/nmol P450; formation rate of metabolite [6]: < 0.05 nmol product/min/nmol P450; formation rate of metabolite [7]: < 0.05 nmol product/min/nmol P450; formation rate of metabolite [8]: < 0.05 nmol product/min/nmol P450; formation rate of metabolite [9]: 0.1 min⁻¹; formation rate of metabolite [10]: 0.3 min⁻¹

**Q.** With `COc1ccc2[nH]c([S@@+]([O-])Cc3ncc(C)c(OC)c3C)nc2n1` [S-tenatoprazole] as the compound, how does the “kcat of product formation” value [11] read?
**A.** The value was 2.7 min⁻¹ and 2.7 ± 0.2 min⁻¹.

**Q.** What about the “rate of metabolism of S-isomer relative to R-isomer” value [12] of the same compound?
**A.** The value was “around seven times more slowly”.
